For data set [1], the system named is LNCaP parental and LNCaP-AbiRes cells. The experiment in a line: Cytotoxicity and proliferation assay (Cyquant direct assay), LNCaP parental and AbiRes. Type of data set: cell-based, human. The conditions noted are these: for IC50: LNCaP, single treatment preliminary experiments, concentration used in combination with Abi (FIG. 6B), except PD-0325901, read-out: Concentrations corresponding to IC50 of each drug. The procedure: (§1) 22Rv1 and LNCaP cells purchased from ATCC were routinely cultured in RPMI1640 medium (Gibco, Grand Island, NY) supplemented with 10% FBS (Atlanta Biologicals, Flowery Branch, GA) and 1% Pen-Strep. […] Abi resistant cells (LNCaP-AbiRes or 22Rv1-AbiRes) were compared with parental cells for viability and gene expression after Abi and other treatments.
(§2) Forty eight hours before abiraterone treatment, cell was seeded in phenol red-free RPMI (Gibco, Grand Island, NY) supplemented with 10% charcoal stripped FBS (Thermo Fisher Scientific, Waltham, MA), and 50 nM pregnenolone was added after 24 hours.

Data set [2] deals with 11 genes (CCNA2, CCNB1, CCNB2, PRC1, SMC2, DLGAP5, ECT2, FBXO5, CDK1, NCAPG, KIF4A). The experiment in a line: qRT-PCR of the 11 genes in cell lines and PDX organoids after drug treatment. Type of data set: cell-based, human. The following applies: for expression of the 11 genes (qRT-PCR): 22Rv1 and LNCaP parental/AbiRes cells, organoids MC-PRX-01 and MC-PRX-05, alone or with Abi. Here is the method:
Total RNA for qRT-PCR was extracted from tumor organoids or cell lines using Quick-RNA MiniPrep Kit (Zymo Research, Irvine, CA) according to the manufacturer's instructions. qRT-PCR was performed using the Power SYBR® Green RNA-to-CT 1-Step Kit (Life Technologies, Grand Island, NY) and QuantiTect® (QIAGEN, Germantown, MD) or PrimeTime® (IDT, Inc., Coralville, Iowa) pre-designed qPCR primers (IDT Coralville, IA). Gene expression analyses were performed using ΔΔCt method, and β-actin was used as the internal reference. Three independent experiments were performed. Primer sequences are in Table 1.

Another data set concerns MC-PRX-01 PDX tumor. The experiment in a line: MC-PRX-01 PDX model treated with abiraterone ± palbociclib/PHA-793887, 35 days. Type of data set: in vivo, mice. The procedure:
All patient specimens were collected as part of the PROMOTE study as described elsewhere (see, for example, Champoux. Annu. Rev. Biochem., 70, 369-413 (2001); and Kellner et al., Lancet Oncol., 3, 235-243 (2002)). Briefly, pathology confirmed metastatic tumor biopsy tissues of mCRPC was renal capsule xenografted and 25 mg testosterone pellet was subcutaneously implanted into 6-8 weeks old male CB17 NOD-SCID mice (Jackson laboratories, Bar Harbor, Maine; Charles River Laboratories, Raleigh, North Carolina) and observed for at least 6 months or till the tumor reached 1.0-1.5 cm at maximal length, when sub-xenografts were expanded by subcutaneous implantation with harvested PDX tumor mixed with Matrigel (Corning, Corning, New York) with no exogenous testosterone supplied. Early generation PDX tumors were collected for cryo-storage and next-generation sequencing. Pathology confirmed PDX model generated from AA/P non-responder bone metastatic tumor biopsy tissues were employed to test the in vivo tumor response to abiraterone+Mito/Dox/Palb/PHA. After PDX tumor reached approximately 100 mm3, mice were randomized to 6 groups. […] Body weight and tumor volumes (width^2×length/2) were measured two to three times per week with a digital caliper, and the average tumor volumes were determined. At the end of the treatment period, mice were euthanized and the tumors were removed, dissected and frozen at −80° C. for further analysis.

Data set [3] concerns 22Rv1 parental and 22Rv1-AbiRes cells. The experiment in a line: Cytotoxicity and proliferation assay (Cyquant direct assay), 22Rv1 parental and AbiRes. Type of data set: cell-based, human. The conditions noted are these: single treatment preliminary experiments, concentration used in combination with Abi (FIG. 6A), read-out: Concentrations corresponding to IC50 of each drug. Here is the method:
as §1, §2

For data set [4], the system named is metastatic / castration-resistant prostate cancer. The conditions noted are these: patients, literature; cited from earlier work.
Data set [5] relates to PDX organoids MC-PRX-01 and MC-PRX-05. The experiment in a line: PDX derived organoid culture and cytotoxicity assay (3D cell titer).
In data set [6] the test system is 11 genes in MC-PRX-01 and MC-PRX-06 PDX tumors. Kind of data set: qRT-PCR of the 11 genes in post treatment PDX tumors. The conditions noted are these: MC-PRX-01 and MC-PRX-06 tumors harvested after treatment. Type of data set: in vivo, mice.

Consider six compounds from patent US20240307414A1, “METHODS AND MATERIALS FOR TREATING PROSTATE CANCER” (Mayo Foundation for Medical Education and Research, priority 2020, published 2024).

Entries after “also recorded” stand apart in the source; their conditions may differ. Read-outs that look alike come from different tables or passages of the source.

Consider `O=C(NOC[C@H](O)CO)c1ccc(F)c(F)c1Nc1ccc(I)cc1F` [PD-0325901, mirdametinib], for which the “response of LNCaP cells to the MEK inhibitor” value in data set [1] (LNCaP harbors a Q56P mutation) is given as “conferring resistance to this MEK inhibitor”. In data set [2], the “expression of the 11 genes (qRT-PCR)” value is “less consistency in the suppression”.
Regarding `CC(C)CC(=O)Nc1n[nH]c2c1CN(C(=O)C1CCN(C)CC1)C2(C)C` [PHA-793887], the IC50 in data set [1] and in data set [3] was 100 nM throughout. The “expression of the 11 genes (qRT-PCR)” value in data set [2] was “less consistency in the suppression”. Moreover, the tumor growth result in the data set with MC-PRX-01 PDX tumor (35 days) is “inhibited tumor growth”. In addition, the “tumor growth inhibition as single treatment” value with MC-PRX-01 PDX tumor (35 days, tested dosage) is listed as “did not exhibit statistically significant inhibition”. For the same compound, the “sensitization of the tumor to Abi treatment” value in the data set with MC-PRX-01 PDX tumor (combination with Abi) is reported as “sensitize the tumor to Abi treatment”.
For the compound `CC(=O)O[C@H]1CC[C@@]2(C)C(=CC[C@@H]3[C@@H]2CC[C@]2(C)C(c4cccnc4)=CC[C@@H]32)C1` [abiraterone acetate], the overall survival entry in data set [4] was “extend overall survival significantly”.
In the case of `C[C@]12CC[C@H](O)CC1=CC[C@@H]1[C@@H]2CC[C@]2(C)C(c3cccnc3)=CC[C@@H]12` [abiraterone], the “inhibition of organoid growth” value in data set [5] (abiraterone alone at the highest tested concentration, MC-PRX-01 and MC-PRX-05 organoids) was “less than 10%”.
For `COc1cccc2c1C(=O)c1c(O)c3c(c(O)c1C2=O)C[C@@](O)(C(=O)CO)C[C@@H]3O[C@H]1C[C@H](N)[C@H](O)[C@H](C)O1` [doxorubicin], the “expression of the 11 genes in PDX tumors after treatment (qRT-PCR)” value in data set [6] was “significantly downregulated”.
On to `O=C1c2c(O)ccc(O)c2C(=O)c2c(NCCNCCO)ccc(NCCNCCO)c21` [mitoxantrone], for which the IC50 in data set [1] (Homo sapiens) amounted to 10 nM. The “expression of the 11 genes (qRT-PCR)” value in data set [2] is “most consistently suppressed the expression of the 11 genes; also recorded: more significant effects on the 11 gene suppression”. Besides, the “suppression of the 11 genes in LNCaP Abi-resistant cells compared to parental cells” value in data set [2] (LNCaP AbiRes vs parental) is on record as “better suppression effects”. Moreover, the “potency relative to the other identified drugs in cytotoxicity experiments” value in data set [5] (range of doses tested, FIG. 6) is given as “superior to others; also recorded: most potent”. The “expression of the 11 genes in PDX tumors after treatment (qRT-PCR)” value in data set [6] is recorded as “significantly downregulated”.
